Experimental findings from patent US9242996B2 (Novartis AG, priority 2013, dated 2016) are described below.

Format in all cases: biochemical
One test has as its target ERK2 (Homo sapiens (Human), UniProt P28482). Kind of test: ERK2 Alphascreen. On the technique in general: In Alpha technology, singlet oxygen from a donor bead excites a nearby acceptor bead.
Test [1] has as its target T1, activated ERK2 (Homo sapiens (Human), UniProt P28482). Kind of test: Activated ERK2 (20 pM) Kinase Assay (AlphaScreen, ERKtide phosphorylation). The following applies: 0.02 nM ERK2, 400 nM ERKtide peptide, 35 μM ATP, 30 min preincubation. The essentials:
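AlphaScreen read-out (anti-phospho-EGFR Thr669 antibody, protein A acceptor/streptavidin donor beads) of ERKtide (400 nM) phosphorylation by 20 pM activated ERK2 at 35 μM ATP.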

For test [2], the target named is T1, activated ERK2. Kind of test: Activated ERK2 kinase assay, ERK2 New conditions (AlphaScreen, ERKtide phosphorylation). The following applies: 0.25 nM ERK2, 200 nM ERKtide peptide, 35 μM ATP, 30 min preincubation. The essentials: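 Read-out is AlphaScreen with anti-phospho-EGFR (Thr669) antibody after EDTA quench and overnight dark incubation. Reaction: 0.25 nM ERK2, 30 min compound preincubation, then 200 nM ERKtide plus 35 µM ATP for 2–3 h at ambient temperature, pH 7.5. IC50 by four-parameter fit.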

T1 sequence (P28482 whole entry): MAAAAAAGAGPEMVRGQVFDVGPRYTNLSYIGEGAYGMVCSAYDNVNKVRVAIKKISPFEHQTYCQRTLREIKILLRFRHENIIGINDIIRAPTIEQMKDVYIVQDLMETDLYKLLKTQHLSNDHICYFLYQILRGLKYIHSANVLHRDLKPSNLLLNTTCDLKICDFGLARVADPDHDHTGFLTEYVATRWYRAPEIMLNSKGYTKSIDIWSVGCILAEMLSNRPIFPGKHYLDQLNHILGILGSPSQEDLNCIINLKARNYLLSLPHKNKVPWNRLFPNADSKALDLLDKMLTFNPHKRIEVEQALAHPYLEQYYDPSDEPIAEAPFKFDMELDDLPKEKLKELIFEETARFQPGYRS
Sequence of ERK2 (P28482 whole entry, species assumed): as the sequence (P28482 whole entry) above

By IC50 is commonly meant the concentration needed to halve the response being measured. A low value points to higher potency. In the case of `Nc1ncc(C2CCNCC2)cc1-c1ccc(C(=O)N[C@H](CO)c2ccccc2)c(F)c1` [Example 2, (S)-4-(2-amino-5-(piperidin-4-yl)pyridin-3-yl)-2-fluoro-N-(2-hydroxy-1-phenylethyl)benzamide], the IC50 against ERK2 turned out to be 192 nM.

Regarding `Nc1ncc(C2CCOCC2)cc1-c1ccc(C(=O)N[C@H](CO)c2ccccc2)cc1` [Example 64, (S)-4-(2-amino-5-(tetrahydro-2H-pyran-4-yl)pyridin-3-yl)-N-(2-hydroxy-1-phenylethyl)benzamide], the IC50 worked out at 4.36 nM against activated ERK2 [1] and 3.64 nM at ERK2.

With `Cc1cc(-c2cc(C3CCOCC3)cnc2N)ccc1C(=O)N[C@H](CO)c1ccccc1` [Example 65, (S)-4-(2-amino-5-(tetrahydro-2H-pyran-4-yl)pyridin-3-yl)-N-(2-hydroxy-1-phenylethyl)-2-methylbenzamide], the IC50 was 0.684 nM against activated ERK2 [1] and 1.84 nM against ERK2.

As for `Nc1ncc(C2CCOCC2)cc1-c1ccc(C(=O)NCc2ccccc2)cc1` [Example 66, 4-(2-amino-5-(tetrahydro-2H-pyran-4-yl)pyridin-3-yl)-N-benzylbenzamide], the IC50 against activated ERK2 [1] stood at 41.8 nM; at ERK2, 55.3 nM.

Take `CN(C)c1cccc(CNC(=O)c2ccc(-c3cc(C4CCOCC4)cnc3N)cc2)c1` [Example 67, 4-(2-amino-5-(tetrahydro-2H-pyran-4-yl)pyridin-3-yl)-N-(3-(dimethylamino)benzyl)benzamide]: the IC50 against activated ERK2 [1] was 67.7 nM; on ERK2, 85.5 nM.

`C[C@@H](NC(=O)c1ccc(-c2cc(C3CCOCC3)cnc2N)cc1)c1ccccc1` [Example 69, (R)-4-(2-amino-5-(tetrahydro-2H-pyran-4-yl)pyridin-3-yl)-N-(1-phenylethyl)benzamide]: the IC50 against activated ERK2 [1] is 10 nM; against ERK2, 16 nM.

Turning to `Cc1cc(C(=O)N[C@H](CO)c2ccccc2)ccc1-c1cc(C2CCOCC2)cnc1N` [Example 70, (S)-4-(2-amino-5-(tetrahydro-2H-pyran-4-yl)pyridin-3-yl)-N-(2-hydroxy-1-phenylethyl)-3-methylbenzamide], the IC50 amounted to 331 nM on activated ERK2 [1] and 574 nM against ERK2.

Consider `Nc1ncc(C2CCOCC2)cc1-c1ccc(C(=O)N[C@H](CO)c2ccccc2)cc1F` [Example 71, (S)-4-(2-amino-5-(tetrahydro-2H-pyran-4-yl)pyridin-3-yl)-3-fluoro-N-(2-hydroxy-1-phenylethyl)benzamide], for which the IC50 turned out to be 8.78 nM on activated ERK2 [1] and 17.2 nM at ERK2.

As for `Nc1ncc(C2CCS(=O)(=O)CC2)cc1-c1ccc(C(=O)N[C@H](CO)c2ccccc2)cc1` [Example 77, (S)-4-(2-amino-5-(1,1-dioxidotetrahydro-2H-thiopyran-4-yl)pyridin-3-yl)-N-(2-hydroxy-1-phenylethyl)benzamide], the IC50 against activated ERK2 [1] is 50.8 nM; at ERK2, 97.6 nM.

As to `Nc1ncc(-c2ccncc2)cc1-c1ccc(C(=O)N[C@H](CO)c2ccccc2)cc1` [Example 80, (S)-4-(6-amino-[3,4′-bipyridin]-5-yl)-N-(2-hydroxy-1-phenylethyl)benzamide], the values for the IC50 on activated ERK2 [1] and at ERK2 were 0.51 nM and 0.584 nM, respectively.

Take `Cc1cnccc1-c1cnc(N)c(-c2ccc(C(=O)N[C@H](CO)c3ccccc3)cc2)c1` [Example 82, (S)-4-(6-amino-3′-methyl-3,4′-bipyridin-5-yl)-N-(2-hydroxy-1-phenylethyl)benzamide]: the IC50 on activated ERK2 [1] was 0.9 nM; against ERK2 it was 2.13 nM.

`C[C@@H]1COCCN1c1cnc(N)c(-c2ccc(C(=O)N[C@H](CO)c3ccccc3)c(F)c2)c1` [Example 84, 4-(2-amino-5-((R)-3-methylmorpholino)pyridin-3-yl)-2-fluoro-N-((S)-2-hydroxy-1-phenylethyl)benzamide]: the IC50 against activated ERK2 [1] worked out at 2.05 nM; against ERK2, 9.64 nM.

Take `Nc1ncc(C2CCOCC2)cc1-c1ccc(C(=O)NCc2cccc(Cl)c2)cc1` [Example 86, 4-(2-amino-5-(tetrahydro-2H-pyran-4-yl)pyridin-3-yl)-N-(3-chlorobenzyl)benzamide]: the IC50 against activated ERK2 [1] worked out at 3.75 nM; against ERK2, 4.78 nM.

For the compound `Nc1ncc(C2CCOCC2)cc1-c1ccc(C(=O)NCc2ccccc2Cl)cc1` [Example 87, 4-(2-amino-5-(tetrahydro-2H-pyran-4-yl)pyridin-3-yl)-N-(2-chlorobenzyl)benzamide], the IC50 at activated ERK2 [1] is 209 nM; against ERK2, 266 nM.

Turning to `Nc1ncc(C2CCOCC2)nc1-c1ccc(C(=O)NCc2cccc(Cl)c2)c(F)c1` [Example 173, 4-(3-amino-6-(tetrahydro-2H-pyran-4-yl)pyrazin-2-yl)-N-(3-chlorobenzyl)-2-fluorobenzamide], the IC50 against ERK2 came to 0.758 nM.

Take `Cc1cccc([C@@H](CO)NC(=O)c2ccc(-c3cc(-c4cn(C)nc4C)cnc3N)cc2F)c1` [Example 283, (S)-4-(2-amino-5-(1,3-dimethyl-1H-pyrazol-4-yl)pyridin-3-yl)-2-fluoro-N-(2-hydroxy-1-(m-tolyl)ethyl) benzamide]: the results for the IC50 at activated ERK2 [2] and against activated ERK2 [1] were 0.169 nM and 0.0378 nM, respectively.

Turning to `Cn1cc(-c2cnc(N)c(-c3ccc(C(=O)N[C@H](CO)c4cc(F)cc(Cl)c4)c(F)c3)c2)cn1` [Example 289, (S)-4-(2-amino-5-(1-methyl-1H-pyrazol-4-yl)pyridin-3-yl)-N-(1-(3-chloro-5-fluorophenyl)-2-hydroxyethyl)-2-fluorobenzamide], the IC50 against activated ERK2 [2] was 0.192 nM; against activated ERK2 [1], 0.0814 nM.

Regarding `CCn1cc(-c2cnc(N)c(-c3ccc(C(=O)N[C@H](CO)c4cccc(Cl)c4)c(F)c3)c2)cn1` [Example 297, (S)-4-(2-amino-5-(1-ethyl-1H-pyrazol-4-yl)pyridin-3-yl)-N-(1-(3-chlorophenyl)-2-hydroxyethyl)-2-fluorobenzamide], the IC50 was found to be 0.153 nM against activated ERK2 [2] and 0.0715 nM against activated ERK2 [1].

Regarding `Cn1nncc1-c1cnc(N)c(-c2ccc(C(=O)N[C@H](CO)c3cccc(Cl)c3)c(F)c2)c1` [Example 300, (S)-4-(2-amino-5-(1-methyl-1H-1,2,3-triazol-5-yl)pyridin-3-yl)-N-(1-(3-chlorophenyl)-2-hydroxyethyl)-2-fluorobenzamide], the results for the IC50 at activated ERK2 [2] and on activated ERK2 [1] were 0.228 nM and 0.0655 nM, respectively.

On to `Cc1cccc([C@@H](CO)NC(=O)c2ccc(-c3nc(C4CCOCC4)cnc3N)cc2F)c1` [Example 309, (S)-4-(3-amino-6-(tetrahydro-2H-pyran-4-yl)pyrazin-2-yl)-2-fluoro-N-(2-hydroxy-1-(m-tolyl)ethyl) benzamide], for which the values for the IC50 against activated ERK2 [2] and at activated ERK2 [1] were 0.104 nM and 0.0263 nM, respectively.

Take `Nc1ncc(C2CCCCC2)nc1-c1ccc(C(=O)NCc2ccccc2)c(F)c1` [Example 421, 4-(3-amino-6-cyclo-hexylpyrazin-2-yl)-N-benzyl-2-fluorobenzamide]: the IC50 is 12.6 nM at activated ERK2 [2] and 6.38 nM on activated ERK2 [1].

On to `C[C@@H](NC(=O)c1ccc(-c2nc(C3CCCCC3)cnc2N)cc1F)c1cc(F)cc(S(C)(=O)=O)c1` [Example 423, (R)-4-(3-amino-6-cyclo-hexylpyrazin-2-yl)-2-fluoro-N-(1-(3-fluoro-5-(methylsulfonyl)phenyl)ethyl) benzamide], for which the IC50 worked out at 0.147 nM on activated ERK2 [2] and 0.0614 nM against activated ERK2 [1].

In the case of `Nc1ncc(C2=CCCCC2)nc1-c1ccc(C(=O)NCc2ccccc2)c(F)c1` [Example 424, 4-(3-amino-6-(cyclohex-1-en-1-yl)pyrazin-2-yl)-N-benzyl-2-fluorobenzamide], the concentration for half-maximal inhibition (IC50) against activated ERK2 [2] turned out to be 155 nM; at activated ERK2 [1], 113 nM.

With `Nc1ncc(C2=CCCCC2)nc1-c1ccc(C(=O)N[C@H](CO)c2cccc(Cl)c2)c(F)c1` [Example 425, (S)-4-(3-amino-6-(cyclohex-1-en-1-yl)pyrazin-2-yl)-N-(1-(3-chlorophenyl)-2-hydroxyethyl)-2-fluorobenzamide], the IC50 on activated ERK2 [2] is 0.907 nM; on activated ERK2 [1], 0.359 nM.

As to `C[C@@H](NC(=O)c1ccc(-c2nc(C3=CCCCC3)cnc2N)cc1F)c1cc(F)cc(S(C)(=O)=O)c1` [Example 426, (R)-4-(3-amino-6-(cyclohex-1-en-1-yl)pyrazin-2-yl)-2-fluoro-N-(1-(3-fluoro-5-(methylsulfonyl)phenyl)ethyl) benzamide], the IC50 turned out to be 1.36 nM against activated ERK2 [2] and 0.585 nM at activated ERK2 [1].

As to `Nc1ncc(C2=CCOCC2)nc1-c1ccc(C(=O)NCc2ccccc2)c(F)c1` [Example 427, 4-(3-amino-6-(3,6-dihydro-2H-pyran-4-yl)pyrazin-2-yl)-N-benzyl-2-fluorobenzamide], the IC50 at activated ERK2 [2] worked out at 16.7 nM; against activated ERK2 [1], 6.41 nM.

Regarding `Nc1ncc(C2=CCOCC2)nc1-c1ccc(C(=O)N[C@H](CO)c2cccc(Cl)c2)c(F)c1` [Example 428, (S)-4-(3-amino-6-(3,6-dihydro-2H-pyran-4-yl)pyrazin-2-yl)-N-(1-(3-chlorophenyl)-2-hydroxyethyl)-2-fluorobenzamide], the IC50 worked out at 0.219 nM on activated ERK2 [2] and 0.0759 nM against activated ERK2 [1].

Take `C[C@@H](NC(=O)c1ccc(-c2nc(C3=CCOCC3)cnc2N)cc1F)c1cc(F)cc(S(C)(=O)=O)c1` [Example 429, (R)-4-(3-amino-6-(3,6-dihydro-2H-pyran-4-yl)pyrazin-2-yl)-2-fluoro-N-(1-(3-fluoro-5-(methylsulfonyl)phenyl)ethyl) benzamide]: the results for the IC50 on activated ERK2 [2] and at activated ERK2 [1] were 0.503 nM and 0.221 nM, respectively.

With `COCC(=O)N[C@H]1CC[C@H](c2cnc(N)c(-c3ccc(C(=O)N[C@H](CO)c4cccc(Cl)c4)c(F)c3)n2)CC1` [Example 430, 4-(3-amino-6-((1r,4S)-4-(2-methoxy-acetamido)cyclohexyl)pyrazin-2-yl)-N-((S)-1-(3-chlorophenyl)-2-hydroxyethyl)-2-fluorobenzamide], the IC50 at activated ERK2 [2] stood at 0.787 nM; against activated ERK2 [1], 0.343 nM.
